Reference: US20230201313A1, “METHODS OF TREATING LEFT VENTRICLE HYPERTROPHY” (Amgen Inc., priority 2020, published 2023)
“Also recorded” adds a separate entry of the source.

Columns and labels:
[1] = tested on: PTH; settings: Hansen et al. 2012; cited from earlier work
[2] = tested on: FGF23; settings: Hansen et al. 2012; cited from earlier work
[3] = tested on: maintenance hemodialysis patients with secondary hyperparathyroidism (SHPT) and LVH; test: Single blinded randomized 12-month trial, etelcalcetide vs alfacalcidol: left ventricular mass index (LVMI) by cardiac MRI; type: in vivo, human; settings: for estimated adjusted mean difference in the change of LVMI: ANCOVA, 1 year vs baseline, etelcalcetide group compared to alfacalcidol group
Description: For the study, 62 patients were recruited, of which 30 patients were randomized to treatment with alfacalcidol and 32 to treatment with etelcalcetide. During the course of the 12-month study, ten patients dropped out during follow-up. Data for the main outcome (left ventricular mass index, LVMI in g/m^2) was available for the patients at baseline (enrollment) and at the 1-year follow-up, except for three patients as noted in Example 1. FIG. 1A illustrates a flow chart of the study design. Turning now to FIGS. 2A-2B, data from the study is presented. […] Thus, the 10 patients who dropped out during the study are removed from the analysis. FIG. 2A is a boxplot of the unadjusted primary endpoint for the alfacalcidol and the etelcalcetide treatment groups. […] The unadjusted comparison of the primary endpoint by a 2-sample equal variances t-test yields a significant difference in LVMI change between the treatment groups (p=0.007156). Due to the non-normal distribution of the data, a non-parametric 2-sample Wilcoxon test was also performed to confirm the result (p=0.0006661). An analysis adjusted for the stratification of the randomization was conducted using an Analysis of Covariance (ANCOVA) with outcome variable “Change of LVMI” and using the randomization stratification factors (residual kidney function, center of recruitment) as well as the LVMI at baseline as covariates. […] The associated p-value was 0.00809, in accordance with the result of the unadjusted analysis. In another analysis of the data, referred to as in intention-to-treat analysis, all patients who were randomized for the study are included in the data analysis. Thus, for the 10 patients who dropped out during the study all available measurements are used at the time they were taken. Out of those, for the 3 patients without MRI measurements the outcome values are imputed (obtained as mean values from patients of the same medication group with stratification factors identical to the patient with missing data). Final data on the primary study endpoint, difference of LVMI (g/m^2) at 1 year and LVMI at baseline, for the 62 patients who were randomized for the study is shown in FIG. 2B. The unadjusted comparison of the primary endpoint by a 2-sample equal variances t-test yields a significant difference in LVMI change between the treatment groups (p=0.04691). However, due to the distribution of the data the non-parametric Wilcoxon test is deemed more reliable and confirms the results (p=0.006098). […] The associated p-value was 0.031, in accordance with the result of the unadjusted analysis. Study Overview: A single blinded randomized trial of twelve months to test the effects of etelcalcetide compared to alfacalcidol on LVH and cardiac fibrosis in maintenance hemodialysis patients with secondary hyperparathyroidism (SHPT) was conducted. Both treatment regimens were titrated to equally suppress SHPT. Patients treated three times weekly with hemodialysis for between about 3 months and about 3 years and with parathyroid hormone (PTH) levels ≥300 pg/ml and LVH were enrolled. The primary study endpoint was left ventricular mass index (LVMI) determined in g/m^2 at baseline and at 12 months by cardiac MRI (cMRI). […] Due to the strong association of volume overload and LVH, randomization was additionally stratified by residual kidney function and regular body composition monitoring was performed to control patients' volume status. […]

[4] = tested on: FGF23; test: Trial secondary endpoint: FGF23 blood levels; type: in vivo, human; settings: 55 individuals, 12-month follow-up, FIGS. 4A-4B, versus alfacalcidol group
Description: In FIGS. 4A-4B, the data on FGF23 blood levels for the subjects in each treatment group is shown. On average, 8 measurements were available throughout follow-up for each individual.
(§1) Outcomes measurements: Laboratory analyses: Biochemical data was collected prior to hemodialysis at baseline and periodically (e.g., intact PTH, calcium, phosphate, 25-OH-Vit-D, 1,25-(OH)2-Vit-D every two weeks during the first 10 weeks followed by measurements every 4 weeks; while intact FGF23, s-klotho, proBNP and pre+postdialysis TnT was measured in 8-week-intervals). Additionally, a RAAS fingerprint was conducted before start and at the end of the treatment phase. The RAAS fingerprint is a mass spectrometry-based quantification of angiotensin metabolites. […]
(§2) Intact PTH, calcium and phosphate were analyzed in serum samples using the Cobas assay (Roche, reference range of PTH: 15-65 pg/mL, calcium: 2.15-2.55 mmol/L, phosphate: 0.81-1.45 mmol/L). Vitamin D was measured using serum samples and a chemiluminescent-immunoassays (Diasorin, reference range of 1.25-(OH)2-VitD: 19.9-79.3 pg/mL; 25-OH-Vit-D 75-250 nmol/L). Ionized calcium was measured during every dialysis session (using blood gas analysis (ABL 800 Flex, Drott)). Intact FGF23 was analyzed in plasma samples using chemiluminescent—Immunoassays (DiaSorin, reference range 23.2-95.4 pg/mL). […]

[5] = tested on: calcium; test: Trial secondary endpoint: calcium blood levels; type: in vivo, human; settings: 55 individuals, 12-month follow-up, FIGS. 5A-5B, versus alfacalcidol group
Description: In FIGS. 5A-5B, the calcium blood levels for the subjects in each treatment group is shown. On average, 17 measurements were available throughout follow-up for each individual.
as §1, §2

[6] = tested on: PTH; settings: single intravenous dose, patients on hemodialysis; cited from earlier work
[7] = tested on: FGF23; settings: at 24 hours after a single 10 mg dose; cited from earlier work
[8] = tested on: 1.25(OH)2 vitamin D; settings: after a single 10 mg dose; cited from earlier work

Row | Structure (SMILES) | decrease of PTH levels [1] [%] | increase of FGF23 levels [2] | Prevention of LVH progression ([3]; dialysis patients with sHPT, compared to alfacalcidol) | LVMI progression ([3]; dialysis patients with sHPT, compared to treatment with alfacalcidol) | estimated adjusted mean difference in the change of LVMI ([3]; intention-to-treat analysis (62 randomized patients), p=0.031) | effect on LVH and cardiac fibrosis ([3]; patients under maintenance hemodialysis, through a suppression of FGF23) | estimated adjusted mean difference in the change of LVMI ([3]; per-protocol analysis (52 patients who completed), p=0.00809) | FGF23 blood levels, overall measurements and longitudinal behavior [4] | calcium blood levels, overall measurements and longitudinal behavior [5] | duration of lowering of serum levels of PTH [6] | decrease of FGF23 levels [7] | effect on 1.25(OH)2 vitamin D levels [8]
1 | C=C1/C(=C\C=C2/CCC[C@]3(C)[C@@H]([C@H](C)CCCC(C)C)CC[C@@H]23)C[C@@H](O)C[C@@H]1O [Alfacalcidol] | ≥ 30 | threefold | – | – | – | – | – | – | – | – | – | –
2 | CC(=O)N[C@H](CSSC[C@H](N)C(=O)O)C(=O)N[C@H](C)C(=O)N[C@H](CCCNC(=N)N)C(=O)N[C@H](CCCNC(=N)N)C(=O)N[C@H](CCCNC(=N)N)C(=O)N[C@H](C)C(=O)N[C@H](CCCNC(=N)N)C(N)=O [etelcalcetide, (2R)-3-[[(2S)-2-acetamido-3-[[(2R)-1-[[(2R) [[(2R)-1-[[(2R)-1-[[(2R)-1-[[(2R)-1-amino-5-(diaminomethydeneamino)-1-oxopentanyl]amino]-1-oxopropan-2-yl]amino]-5-(diaminomethydeneamino)-1-oxopentan-2-yl]amino]-5-(diaminomethydeneamino)-1-oxopentan-2-yl]amino]-5-(diaminomethydeneamino)-1-oxopentan-2-yl]amino]-1-oxopropan-2-yl]amino]-3-oxopropyl]disulfanyl]-2-aminopropanoic acid] | – | – | 6-8% | prevented LVMI progression | −6.2 (95% confidence interval −11.72 to −0.71) g/m^2 | effectively ameliorates LVH and cardiac fibrosis | −8.2 (95% confidence interval −13.99 to −2.39) g/m^2 | lower values which were decreasing over time; also recorded: decreased FGF23 levels | lower values which were decreasing over time | up to 72 hours | over 30% | little or no effect
